Assay results from patent US8536204B2, “Amides and thioamides as pesticides” (Bayer CropScience AG, priority 2009, dated 2013).
Where two headings read alike, the source gives them in different places.

Assays:
[1] = Determination of the logP values (formic acid method) by HPLC; assay type: physicochemical
Description: 1) Description of Method for Determining the LogP Values (Formic Acid Method)
The logP values reported in the table were determined according to EEC-Directive 79/831 Annex V.A8 by HPLC (High Performance Liquid Chromatography) on a reversed-phase column (C 18). Temperature: 55° C.
Eluents for the determination in the acidic range (pH 3.4):
Eluent A: acetonitrile+1 ml of formic acid/litre. Eluent B: water+0.9 ml of formic acid/litre.
Gradient: from 10% eluent A/90% eluent B to 95% eluent A/5% eluent B in 4.25 min.
The calibration was effected with unbranched alkan-2-ones (with 3 to 16 carbon atoms), whose logP values are known (determination of the logP values on the basis of the retention times by linear interpolation between two successive alkanones). The lambda-max values were determined with reference to the UV spectra from 200 nm to 400 nm in the maxima of the chromatographic signals.

[2] = test system: green peach aphid (Myzus persicae); assay: Myzus test (spray treatment); assay type: in vivo; details: 144 h, read-out: efficacy in % (100% means that all aphids have been killed); for pest or weed control at 50 g/ha: application rate 50 g/ha
Description: Myzus Test (Spray Treatment)
Solvent: • 78 parts by weight of acetone • 1.5 parts by weight of dimethylformamide
Emulsifier: 0.5 part by weight of alkylaryl polyglycol ether
To produce an appropriate active ingredient formulation, 1 part by weight of active ingredient is mixed with the amounts of solvent and emulsifier specified and the concentrate is diluted to the desired concentration with emulsifier-containing water.
Chinese cabbage leaf slices (Brassica pekinensis) infested by all stages of the green peach aphid (Myzus persicae) are sprayed with an active ingredient formulation of the desired concentration.
After 6 days, the efficacy in % is determined. 100% means that all aphids have been killed; 0% means that no aphids have been killed.

[3] = reversed-phase HPLC column (C 18), pH 3.4, formic acid method, pH 3.4, given in the preparation examples, read-out: log P (HCOOH)
[4] = reversed-phase HPLC column (C 18), pH 3.4, HPLC on reversed-phase column (C 18), acidic range (pH 3.4), 55° C., Table 1, read-out: logP (HCOOH)
[5] = spray on Chinese cabbage leaf slices, after 6 days
[6] = application rate 500 g/ha, spray on Chinese cabbage leaf slices, after 6 days
[7] = HPLC on reversed-phase column (C 18), acidic range (pH 3.4), 55° C., Table 1, read-out: logP (HCOOH)

chromatographic logP [1, 4]	SMILES	pest or weed control at 500 g/ha [2, 6] [%]	other results
–	N#Cc1cnn(-c2cccnc2)c1 [1-(Pyridin-3-yl)-1H-pyrazole-4-carbonitrile]	–	chromatographic logP [1, 3]: 0.98
–	O=C(O)c1cnn(-c2cccnc2)c1 [1-(Pyridin-3-yl)-1H-pyrazole-4-carboxylic acid]	–	chromatographic logP [1, 3]: 0.5
–	Cc1nn(-c2cccnc2)cc1C(=O)O [3-Methyl-1-(pyridin-3-yl)-1H-pyrazole-4-carboxylic acid]	–	chromatographic logP [1, 3]: 0.77
–	CCOC(=O)c1cn(-c2cccnc2)nc1C [Ethyl 3-methyl-1-(pyridin-3-yl)-1H-pyrazole-4-carboxylate]	–	chromatographic logP [1, 3]: 1.83
0.6	CN(C)C(=O)c1cnn(-c2cccnc2)c1 [Example 4]	–	pest or weed control at 50 g/ha [2, 5]: 90%
0.51	O=C(NCc1ncccn1)c1cnn(-c2cccnc2)c1 [Example 5]	100	–
0.87	O=C(NCC(F)F)c1cnn(-c2cccnc2)c1 [Example 6]	100	–
0.78	Cc1nn(-c2cccnc2)cc1C(=O)NCc1ncccn1 [Example 7]	100	–
1.43	CN(CC(F)(F)F)C(=O)c1cnn(-c2cccnc2)c1 [Example 8]	100	–
0.7	Cc1nn(-c2cccnc2)cc1C(=O)N(C)C [Example 10]	100	–
0.97	CON(C)C(=O)c1cnn(-c2cccnc2)c1 [Example 11]	–	–
1.97	FC(F)(F)CNC(=S)c1cnn(-c2cccnc2)c1 [Example 12, 1-(Pyridin-3-yl)-N-(2,2,2-trifluoroethyl)-1H-pyrazole-4-carbothioamide]	80	chromatographic logP [1, 3]: 1.97
1.4	O=C(NC1(C(F)(F)F)CC1)c1cnn(-c2cccnc2)c1 [Example 13]	100	–
1.38	CC(NC(=O)c1cnn(-c2cccnc2)c1)C1CC1 (centres unmarked) [Example 14]	100	–
1.11	CC(F)(F)CNC(=O)c1cnn(-c2cccnc2)c1 [Example 15]	100	–
0.31	O=C(NCc1ccccn1)c1cnn(-c2cccnc2)c1 [Example 16]	100	–
1.68	O=C(NCC1Cc2ccccc2O1)c1cnn(-c2cccnc2)c1 (centres unmarked) [Example 17]	–	–
0.78	O=C(NC1CC1)c1cnn(-c2cccnc2)c1 [Example 18]	100	–
1.09	CN(C(=O)c1cnn(-c2cccnc2)c1)C1CC1 [Example 19]	100	–

chromatographic logP [1, 4]	SMILES	pest or weed control at 500 g/ha [2, 6] [%]	other results
1.21	O=C(NCc1nc(C2CC2)no1)c1cnn(-c2cccnc2)c1 [Example 20]	100	–
1.31	O=C(NCCC(F)(F)F)c1cnn(-c2cccnc2)c1 [Example 21]	100	–
0.66	O=C(NCC1OCCO1)c1cnn(-c2cccnc2)c1 [Example 22]	100	–
0.7	O=C(NCC1COCCO1)c1cnn(-c2cccnc2)c1 (centres unmarked) [Example 23]	100	–
0.83	COC(CNC(=O)c1cnn(-c2cccnc2)c1)OC [Example 24]	100	–
1.16	O=C(NCC1CC1)c1cnn(-c2cccnc2)c1 [Example 25]	100	–
1.58	Cc1nn(-c2cccnc2)cc1C(=O)NC(C)C1CC1 (centres unmarked) [Example 26]	100	logP (HCOOH) ([1]; HPLC on reversed-phase column (C 18), acidic range (pH 3.4), 55° C., Table 1): 1.45
1.35	Cc1nn(-c2cccnc2)cc1C(=O)NCC(C)(F)F [Example 27]	100	–
0.52	Cc1nn(-c2cccnc2)cc1C(=O)NCc1ccccn1 [Example 28]	100	–
1.17	Cc1nn(-c2cccnc2)cc1C(=O)N(C)C1CC1 [Example 29]	100	–
1.95	Cc1nn(-c2cccnc2)cc1C(=O)NCC(F)(F)C(F)(F)F [Example 31]	100	–
1.52	Cc1nn(-c2cccnc2)cc1C(=O)NCCC(F)(F)F [Example 32]	100	–
0.88	Cc1nn(-c2cccnc2)cc1C(=O)NCC1OCCO1 [Example 33]	100	–
0.91	Cc1nn(-c2cccnc2)cc1C(=O)NCC1COCCO1 (centres unmarked) [Example 34]	100	–
1.04	COC(CNC(=O)c1cn(-c2cccnc2)nc1C)OC [Example 35]	100	–
1.32	Cc1nn(-c2cccnc2)cc1C(=O)NCC1CC1 [Example 36]	100	–
1.57	Cc1nn(-c2cccnc2)cc1C(=O)N(C)CC(F)(F)F [Example 37]	100	–
0.87	Cc1nn(-c2cccnc2)cc1C(=O)NCCF [Example 38]	100	–
0.91	CCNC(=O)c1cn(-c2cccnc2)nc1C [Example 39]	100	–

chromatographic logP [1, 4]	SMILES	pest or weed control at 500 g/ha [2, 6] [%]	other results
0.52	N#CCNC(=O)c1cnn(-c2cccnc2)c1 [Example 40]	100	–
1.4	CC(C)C(C#N)NC(=O)c1cnn(-c2cccnc2)c1 (centres unmarked) [Example 41]	100	–
1.09	CN(C(=O)c1cnn(-c2cccnc2)c1)C(C)(C)C#N [Example 42]	100	–
1.14	COC(=O)C(C)NC(=O)c1cn(-c2cccnc2)nc1C (centres unmarked) [Example 43]	100	–
0.79	Cc1nn(-c2cccnc2)cc1C(=O)NCC#N [Example 44]	–	–
0.84	COC(=O)C1(NC(=O)c2cnn(-c3cccnc3)c2)CC1 [Example 45]	100	–
1.12	Cc1nn(-c2cccnc2)cc1C(=O)NCC(F)F [Example 46]	100	–
1.63	Cc1nn(-c2cccnc2)cc1C(=O)NC1(C(F)(F)F)CC1 [Example 47]	100	–
1.43	Cc1nn(-c2cccnc2)cc1C(=O)NCc1nc(C2CC2)no1 [Example 48]	100	–
1.2	Cc1cc(C)nc(CNC(=O)c2cn(-c3cccnc3)nc2C)n1 [Example 49]	100	–
–	COC(=O)NNC(=O)c1cn(-c2cccnc2)nc1C [Example 50]	100	chromatographic logP [1, 7]: 0.52
1.37	COc1cc(OC)nc(CNC(=O)c2cnn(-c3cccnc3)c2)n1 [Example 51]	–	–
1.69	O=C(NCC(F)(F)C(F)(F)F)c1cnn(-c2cccnc2)c1 [Example 52]	–	pest or weed control at 50 g/ha [2, 5]: 90%
0.76	N#CC1(NC(=O)c2cnn(-c3cccnc3)c2)CC1 [Example 53]	–	pest or weed control at 50 g/ha [2, 5]: 90%
–	COC(=O)N(C)NC(=O)c1cn(-c2cccnc2)nc1C [Example 54]	100	chromatographic logP [1, 7]: 0.79
0.91	COC(=O)C(C)NC(=O)c1cnn(-c2cccnc2)c1 (centres unmarked) [Example 55]	–	pest or weed control at 50 g/ha [2, 5]: 90%
1.9	Cc1nn(-c2cccnc2)cc1C(=O)NCC1Cc2ccccc2O1 (centres unmarked) [Example 56]	–	–
2.56	Cc1nn(-c2cccnc2)cc1C(=O)NCCOc1cc(Cl)ccc1Cl [Example 57]	–	–

SMILES	chromatographic logP [1, 4]	pest or weed control at 500 g/ha [2, 6] [%]	other results
CCNC(=O)c1cnn(-c2cccnc2)c1 [Example 1, N-Ethyl-1-(pyridin-3-yl)-1H-pyrazole-4-carboxamide]	0.64	–	chromatographic logP [1, 3]: 0.64; pest or weed control at 500 g/ha ([2]; in Brassica rapa): 100%
Cc1nn(-c2cccnc2)cc1C(=O)NCC(F)(F)F [Example 2, 3-Methyl-1-(pyridin-3-yl)-N-(2,2,2-trifluoroethyl)-1H-pyrazole-4-carboxamide]	1.45	–	chromatographic logP [1, 3]: 1.45; pest or weed control at 500 g/ha ([2]; in Brassica rapa): 100%
